Data reported in patent US9540378B2, “Composition comprising purine derivatives or salt thereof for preventing or treating atopic dermatitis” (DAEWOONG CO., LTD., priority 2012, dated 2017).
Marks after values point to notes of the source that are not given here.

Tests used:
[1] = system: NC/Nga mice, animal models of atopic dermatitis; test: In vivo inhibitory activity against atopic dermatitis in 2,4-DNFB-induced NC/Nga mice; conditions: for Reducing ratio (%) Dermatitis score: applied on affected sites twice per day for 10 days; for Reducing ratio (%) Dermatitis score / Reducing ratio (%) Difference of left and right ear thicknesses / Reducing ratio (%) Epidermis thickness / Reducing ratio (%) Number of mast cells / Reducing ratio (%) Serum IgE level: vs atopic control group; for Reducing ratio (%) Difference of left and right ear thicknesses / Reducing ratio (%) Epidermis thickness / Reducing ratio (%) Number of mast cells / Reducing ratio (%) Serum IgE level: topical, 10 days
Procedure: NC/Nga mice (male, 6 weeks old), animal models of atopic dermatitis, were subject to complete hair removal of the back skin, and then left for 24 hours for healing the minute wounds on the skin. Atopic dermatitis was induced to the mice as follows. That is, a 0.2% solution of 2,4-DNFB (2,4-dinitrofluorobenzene) was prepared by dissolving in a mixed solvent of acetone and olive oil (3:1, v/v). The solution (150 μl) was applied on the hair-removed site of each mouse twice per week for 4 weeks, to induce atopic dermatitis.
The normal control group (NC) was subject to only complete hair removal of the back skin. In case of the atopic dermatitis-induced atopic control group (AC), only Vaseline was applied on the hair-removed sites. […] Each group includes 8 mice.
The therapeutic activity against atopic dermatitis was evaluated through measuring dermatitis scores, epidermis thicknesses, left and right ear thicknesses, serum IgE levels, and numbers of mast cells.
The dermatitis scores were determined by observing the affected sites at the time when the treatments were completed, and then evaluating the visual changes such as erythema, bleeding, scab, etc., so as to yield the scores ranging from 1 to 10. From the resulting dermatitis scores, the inhibition ratio of each test group was calculated in comparison with the atopic control group.
Skin tissue was taken in a size of 1 cm×1 cm from the central area of each affected site, fixed with 10% formaldehyde solution, embedded in paraffin film, and then cut into a 4 μm section. Each tissue section was subject to hematoxylin-eosin (H&E) staining, and then observed with an optical microscope (×200, 5 sites per tissue) so as to calculate the epidermis thickness thereof.
The left and right ear thicknesses were measured with a digital vernier caliper, at the time when the test was started and at the time when the test was completed.
The serum IgE level was measured in the blood collected from the heart of each group mice, according to ELISA (Enzyme-linked immunosorbent assay) methods.
Skin tissue was taken in a size of 0.5 cm×1 cm from the central area of each affected site, fixed with IHC zinc fixative formalin-free solution, embedded in paraffin film, and then cut into a 4 μm section. Each tissue section was adhered on a slide coated with poly-L-lysine, followed by removing the paraffin and hydrating. Each resulting section was subject to toluidine blue staining, and then observed with an optical microscope (×200, 3 sites per tissue) so as to measure the number of mast cells.
All measurement values were calculated in mean±standard deviation. Statistical significances were determined with ANOVA. ≦5% is considered as being statistically significant.

IL-6 = test: Inhibition of inflammatory cytokine mRNA expression (RT-PCR) in LPS-treated Raw264.7 cells: IL-6; assay type: cell-based, mouse; conditions: 400 uM, LPS 1 ug/ml, 24 hours
Procedure: (§1) The inhibitory activity of the compound of Formula 1 was evaluated against the expressions of inflammatory cytokines of atopic dermatitis, i.e., IL-6, IL-10, IL-12p40, and COX-2. Briefly, the Raw264.7 mouse macrophage cell line (ATCC TIB-71) (about 1×10^6 cells) was added into the each well of a 12-well plate and then incubated in a RPMI medium supplemented with 100 U/ml penicillin, 100 ug/ml streptomycin and 10% fetal bovine serum. The cells were treated with the compound of Formula 1 (400 uM) and LPS (1 ug/ml), and then incubated under the condition of 37° C., 5% CO2 for 24 hours. The cells isolated from each group of the medium were treated with a Trizol reagent to extract the total RNA. Each cDNA was prepared according to the vendor's instruction, using a First strand cDNA synthesis kit (Fermentas). The resulting cDNAs (in the same amount for each cDNA) were subject to PCR amplification. The sense and antisense primers used were prepared according to the disclosures, i.e., Zhi-Qiang Chang et al., J. Nutr. Sci. Vitaminol., 2011, 27, p 118-122, JiYeon Lee et al., Biol. Pharm. Bull., 2007, 30(11), p 2043-2051, E. V. Maryukhnich et al., Biol. Sci., 2007, 414, p 242-245. […]

IL-10 = test: Inhibition of inflammatory cytokine mRNA expression (RT-PCR) in LPS-treated Raw264.7 cells: IL-10; assay type: cell-based, mouse; conditions: 400 uM, LPS 1 ug/ml, 24 hours
Procedure: as §1

IL-12p40 = test: Inhibition of inflammatory cytokine mRNA expression (RT-PCR) in LPS-treated Raw264.7 cells: IL-12p40; assay type: cell-based, mouse; conditions: 400 uM, LPS 1 ug/ml, 24 hours
Procedure: as §1

COX-2 = test: Inhibition of inflammatory cytokine mRNA expression (RT-PCR) in LPS-treated Raw264.7 cells: COX-2; assay type: cell-based, mouse; conditions: 400 uM, LPS 1 ug/ml, 24 hours
Procedure: as §1

[2] = 0.03% and 0.1%, applied on affected sites for 10 days

With Cn1c(N)nc2c(ncn2C)c1=O [compound of Formula 1, 2-amino-1,9-dimethylpurin-6-one] the “dermatitis scores, in words” value [1, 2] was “significantly reduced”, the “differences of left and right ear thicknesses, in words” value [1, 2] was “significantly reduced” and the “epidermis thicknesses, in words” value [1, 2] was “significantly reduced”. The “numbers of mast cells, in words” value [1, 2] was “significantly reduced”, the “serum IgE levels, in words” value [1, 2] was “significantly reduced” and the “Reducing ratio (%) Dermatitis score” value ([1]; Test group 1 (0.03%)) was 8.96* %. The “Reducing ratio (%) Difference of left and right ear thicknesses” value ([1]; Test group 1 (0.03%)) was 7.69%, the “Reducing ratio (%) Epidermis thickness” value ([1]; Test group 1 (0.03%)) was 36.13*** % and the “Reducing ratio (%) Number of mast cells” value ([1]; Test group 1 (0.03%)) was 7.7%. For the same compound, the “Reducing ratio (%) Serum IgE level” value ([1]; Test group 1 (0.03%)) was 51.76%, the “Reducing ratio (%) Dermatitis score” value ([1]; Test group 2 (0.1%)) was 24.00*** % and the “Reducing ratio (%) Difference of left and right ear thicknesses” value ([1]; Test group 2 (0.1%)) was 38.46%. The “Reducing ratio (%) Epidermis thickness” value ([1]; Test group 2 (0.1%)) was 52.63*** %, the “Reducing ratio (%) Number of mast cells” value ([1]; Test group 2 (0.1%)) was 24.9** % and the “Reducing ratio (%) Serum IgE level” value ([1]; Test group 2 (0.1%)) was 56.46** %. The “IL-6 mRNA expression level” value (IL-6) was “effectively inhibited”, the “IL-10 mRNA expression level” value (IL-10) was “effectively inhibited” and the “IL-12p40 mRNA expression level” value (IL-12p40) was “effectively inhibited”. The “COX-2 mRNA expression level” value (COX-2) was “effectively inhibited”.
